{"source": "patent US20030065001A1", "about": "“Fungicidal combinations comprising quinazolinone” (priority 1997, published 2003)", "test_system": "Erysiphe graminis f.sp. tritici", "assay": "Efficacy against Erysiphe graminis f.sp. tritici on wheat (Example B-1)", "type": "in vivo", "conditions": "single active ingredient", "text": "A synergistic effect exists whenever the action of an active ingredient combination is greater than the sum of the actions of the individual components. The action to be expected E for a given active ingredient combination obeys the so-called COLBY formula and can be calculated as follows (COLBY, S.R. “Calculating synergistic and antagonistic responses of herbicide combination”. Weeds, Vol. 15, pages 20-22; 1967):\nppm=milligrams of active ingredient (=a.i.) per litre of spray mixture\nX=% action by active ingredient I using p ppm of active ingredient\nY=% action by active ingredient II using q ppm of active ingredient.\nAccording to Colby, the expected (additive) action of active ingredients I+II using p+q ppm of [formula]\nIf the action actually observed (O) is greater than the expected action (E), then the action of the combination is superadditive, i.e. there is a synergistic effect.\nWheat plants c.v. “Arina”, about 10 days old, are sprayed with aqueous suspensions of the active ingredients or mixtures thereof. One day later, the plants are inoculated by dusting with spores of Erysiphe graminis. The tests may also be carried out with curative applications, i.e. application 1-3 days after artificial inoculation of the plants. The plants are incubated in the greenhouse or in climate chambers at 20° C., 70% relative humidity. 7 to 10 days after inoculation, fungal attack on primary leaves is assessed.\nThe efficacy of the rest combinations and the single active ingredients in the above tests is determined by comparing the degree of fungal attack with that on untreated, similarly inoculated check plants.", "data": [{"smiles": "Cc1cc(C2CC2)nc(Nc2ccccc2)n1", "note": "[Cyprodinil, cyprodinil]", "values": [{"measurement": "% activity observed", "setting": "Table 2, 10 ppm", "value": 0, "unit": "%"}, {"measurement": "% activity observed", "setting": "Table 2, 25 ppm", "value": 15, "unit": "%"}]}, {"smiles": "N#Cc1c[nH]cc1-c1cccc2c1OC(F)(F)O2", "note": "[Fludioxonil, fludioxonil]", "values": [{"measurement": "% activity observed", "setting": "Table 1, 250 ppm", "value": 20, "unit": "%"}]}, {"smiles": "CON=C(C(=O)OC)c1ccccc1CON=C(C)c1cccc(C(F)(F)F)c1", "note": "[cmpd. V, methyl 2-{2-[4-(3-trifluoromethylphenyl)-3-aza-2-oxa-3-pentenyl]-phenyl}-2-methoxyimino-acetate]", "values": [{"measurement": "inhibition at 0.25 ppm", "setting": "Blumeria graminis, Table 3, 0.25 ppm, read-out: % activity observed", "value": 29, "unit": "%"}, {"measurement": "inhibition at 0.5 ppm", "setting": "Blumeria graminis, Table 3, 0.5 ppm, read-out: % activity observed", "value": 54, "unit": "%"}]}]}
